From BigSolDB 2.1

Nc1n[nH]c(=S)s1
solubility (mole fraction)
Settings	283.15 K	288.15 K	293.15 K	298.15 K	303.15 K	308.15 K	313.15 K	318.15 K	323.15 K
in acetone	0.0101	0.0107	0.0114	0.0121	0.0129	0.0135	0.0142	0.015	0.0158
in cyclohexanone	0.0325	0.0343	0.036	0.0378	0.0397	0.0415	0.0433	0.0449	0.0467
in ethanol	0.00402	0.00442	0.00486	0.00526	0.00578	0.00629	0.00684	0.00741	0.008
in ethyl acetate	0.00203	0.00222	0.00242	0.00263	0.0028	0.00301	0.00326	0.0035	0.00374
in isobutanol	0.00148	0.0017	0.00197	0.00225	0.00257	0.00289	0.00333	0.00376	0.0042
in isopropanol	0.00224	0.00259	0.00302	0.00351	0.00397	0.00447	0.00501	0.0057	0.0065
in methanol	0.00454	0.00505	0.00553	0.00617	0.00676	0.00737	0.00806	0.00882	0.00961
in methyl acetate	0.0022	0.00239	0.0026	0.00285	0.00308	0.00332	0.00361	0.00386	0.00411
in n-butanol	0.00216	0.00243	0.00284	0.00327	0.00372	0.00427	0.0048	0.00546	0.0061
in n-butyl acetate	0.00158	0.00172	0.00189	0.00205	0.00221	0.0024	0.0026	0.00283	0.00304
in n-propanol	0.0022	0.00259	0.00293	0.00341	0.00387	0.0043	0.00489	0.00561	0.00629
in n-propyl acetate	0.00183	0.00197	0.00212	0.00228	0.00243	0.00259	0.00278	0.00295	0.00316
in sec-butanol	0.00247	0.0029	0.00337	0.00397	0.00451	0.0051	0.00584	0.00667	0.00768
